Experimental findings from patent publication US12227548B2, “Use of IRE1α-XBP1 signaling pathway biomarkers for modulating immune responses” (Dana-Farber Cancer Institute, Inc., priority 2018, dated 2025) are described below.

One test deals with mouse NK cells. Put plainly: Ex vivo expansion of mouse NK cells (Myc^OE and littermate control) with IL-2 and IL-15, CTV dilution. The format is cell-based. To be noted: IL-2 and IL-15 for 3 days, FIG. 15B. Here is the method: FIG. 15A-FIG. 15E show the restoration of c-Myc in the absence of IRE1 rescues the NK cell proliferation defect. […] FIG. 15C-FIG. 15E show WT (Myc^fsf/+ IRE1^f/f Ncr1^Cre−), IRE1^NK (Myc^+/+ IRE1^f/f Ncr1^Cre+) Myc^OE (Myc^fsf/+ IRE1^+/+ Ncr1^Cre+) and Myc^OE IRE1^NK (Myc^fsf/+ IRE1^f/f Ncr1^Cre+) NK cells pre-labeled with CTV and cultured ex vivo with IL-2 and IL-15. […] P values are as indicated; ns=not significant. One sample t-test is performed on FIG. 15A. One-way analysis of variance (ANOVA) with the Tukey post-test is performed on FIGS. 15C-15E. All error bars are s.e.m. N=5 mice/group in FIG. 15A, n=2 mice/group in FIG. 15B and n=4 mice/group in FIGS. 15C-15E. […] Experiments in FIGS. 15B-15E were independently repeated three times.
For FIG. 1E, ˜2×10^5 sorted splenic NK cells were stimulated for 16 hr in complete RPMI containing 10% FBS with recombinant mouse IL-2 ([…]; BioLegend), either in the presence or absence of IL-12 (20 ng/ml; Peprotech) and IL-18 (10 ng/ml; R&D Systems). For ex vivo NK cell expansion experiments, 2.5×10^5 sorted NK cells (>97% purity) were stimulated in RPMI supplemented with 10% FBS, penicillin-streptomycin, L-glutamine and β-mercaptoethanol, and with recombinant mouse IL-2 (10 ng/ml; R&D Systems) and IL-15/15R (40 ng/ml; eBioscience) re-applied every other day. […]

The next test concerns primary human NK cells. Put plainly: Ex vivo expansion of primary human NK cells with IL-2 and IL-15, CTV dilution. It is filed as cell-based. The protocol: Equal numbers of NK cells from wild-type and IRE1^NK donors were labelled with cell proliferation tracing dye CTV, and then co-transferred into lymphocyte-lacking recipient Rag2-/-Il2rg-/- mice. Flow cytometric evaluation of NK cell expansion and proliferation was performed in the spleen of recipient mice at day 3-5 after transfer. […] IRE1^NK and IRE1^f/f NK cells from littermate animals were pre-labeled with CTV and cultured ex vivo with IL-2 and IL-15 for the indicated number of days. […] Two-way analysis of variance (ANOVA) with the Sidak post-test performed on FIGS. 7B and 7D. Two tailed unpaired Student's t-test performed on FIG. 7C. One-way analysis of variance (ANOVA) with the Tukey post-test performed on FIG. 7G. Two tailed paired Student's t-test performed on FIGS. 7F, 7I and 7J. All error bars show the standard deviation. Data are representative of three (FIGS. 7B and 7C) and two (FIGS. 7D-7E and 7G-7H) independent repeats. Data in FIGS. 7F, 7I and 7J are pooled from two independent repeats. N equals 2 mice/group in FIG. 7B. N equals 4 mice/group in FIGS. 7C, 7G and 7H. N equals 3 mice/group (and technical duplicates for ex vivo culture) in FIGS. 7D and 7E. N equals 6, 5 and 5 PBMC donors in FIGS. 7F, 7I and 7J. Peripheral blood mononuclear cells (PBMCs) from healthy donors (New York Blood Center) were isolated by density gradient centrifugation with Ficoll (GE Healthcare). […]

Test [1] relates to c-Myc promoter activation in Myc^GFP NK cells. Put plainly: c-Myc reporter (Myc^GFP) expression in splenic NK cells treated with cytokines. It is filed as cell-based, mouse. To be noted: FIG. 9H. Here is the method:
Genes were clustered by functional annotation. […] Equal numbers of Ly49H^+ NK cells from wild type and knockout donors were co-transferred into recipient Ly49H-deficient mice 1 day before infection. […] Anti-XBP1s Ab was used and IgG was used as mock control. FIG. 9H show the representative flow cytometric plots (left) and quantification of c-Myc reporter expression. Before assessment, splenic NK cells from c-Myc reporter mice (Myc^GFP) were treated with indicated cytokines for 16 hours, either in the presence or absence of the IRE1 inhibitor (IRE1i) 4μ8c. […] Equal numbers of Ly49H^+ NK cells from wild type and Myc^NK donors were co-transferred into recipient Ly49H− deficient mice 1 day before infection. […] One sample t-test performed on FIG. 9J. Two tailed unpaired Student's t-test performed on FIG. 9D and FIG. 9G. Two-way analysis of variance (ANOVA) with the Sidak post-test performed on FIGS. 9E, and 9I. […] Each column in FIG. 9B is a different mouse. Data are representative of three (FIGS. 9C-9E and FIG. 9G) and two independent repeats (FIGS. 9F, 9H, 9I and 9J). Data were independently repeated three (FIGS. 9D and 9H) and two (FIGS. 9G-9J). N equals 3 or 4 mice/group in FIG. 9D and FIG. 9J; n equals 3 technical replicates/group in FIG. 9G; n equals 3 replicates/treatment in ex vivo culture in FIG. 9H; n equals 5 mice/group in FIG. 9I. […]

The subject of a further test is human primary NK cells. In words: Metabolic flux assay (oxygen consumption rate) of IL-12 and IL-18 activated human primary NK cells. The format is cell-based. To be noted: IL-12 and IL-18 for 16 hr, inhibitor 5 μM; FIG. 14C. Here is the method:
Genes were clustered by functional annotation. c-Myc-regulated genes (Morrish and Hockenbery (2014) Cold Spring Harb. Perspect. Med. 4:a014225) are shown in black text on the right. […] Primary human NK cells isolated from PBMC were incubated with IL-12 and IL-18 for 16 hr, in the presence or absence of the IRE1α inhibitor 4μ8C (5 uM). Approximately 600,000 cells were plated per well, and the data were normalized to total protein quantification. Oligo (Oligomycin, 1 μM), FCCP (carbonyl cyanide-p-(trifluoromethoxy) phenylhydrazone, 1 μM), R (rotenone, 0.5 μM) and A (antimycin, 0.5 μM).
Purified human primary NK cells from healthy PBMC donors were stimulated with human recombinant IL-12 and IL-18 for 16 hr in complete RPMI medium, in the presence or absence of IRE1 inhibitor 4μ8C (5 μM). After incubation, NK cells were collected, thoroughly washed and then subjected to Seahorse analyses using non-buffered XF base medium containing 25 mM glucose, 2 mM L-glutamine, and 1 mM sodium Pyruvate but lacking serum. […] 6×10^5 NK cells were plated and OCR measurements were analyzed on an XFe96 Extracellular Flux Analyzer (Agilent). After basal OCR measurements were obtained, an OCR trace was recorded in response to oligomycin (1 μM), carbonyl cyanide-p-(trifluoromethoxy) phenylhydrazone (FCCP, 1 μM), and rotenone and antimycin (0.5 μM each) following the XF Cell Mito Stress test kit (Agilent). […]

The subject of test [2] is Chop and IRE1α/XBP1 pathway in NK cells. In words: Ex vivo incubation of splenic NK cells with tunicamycin, XBP1 splicing assay and qRT-PCR of UPR genes. The format is cell-based, mouse. Conditions: 4 hours ex vivo incubation, FIG. 3A. From the text: The quantitative real time PCR data were presented as relative expression to β-Actin. […] BM NK cells were identified by Lin^−CD122 and splenic NK cells were identified by Lin^−NK1.1^+. Ns indicates “not significant”, * indicates p<0.05, ** indicates p<0.01, *** indicates p<0.001 and **** indicates p<0.0001. Two tailed unpaired Student's t-test performed on FIG. 3A. All error bars show standard deviation. N equals 3 mice/group in FIG. 3A and FIG. 3D. N equals 5 mice/group in FIGS. 3B-3C and FIG. 3F. N equals 10 mice in FIG. 3E. Experiments were independently repeated three (FIGS. 3A-3C and 3E-3F) and two ([…] FIG. 3D) times.
Cells were pre-enriched (Miltenyi Biotec) and then sorted to >95% purity and RNA was isolated using the RNeasy® RNA purification mini (for 5×10^5 cells or beyond) or micro (for <5×10^5 cells) kit (Qiagen) according to the manufacturer's protocol. From purified RNA, cDNA was synthesized using the reverse-transcriptase kit gScript™ cDNA synthesis kit (Quanta Biosciences). Quantitative real time PCR (qRT-PCR) was performed in triplicates in a 384-well plate using Taqman® Probes (Themo Fisher) or SYBR® Green (Quanta Biosciences)-based detection on an ABI QuantStudio™ 6 Flex qRT-PCR machine. For experiments in FIG. 9D, CellDirect™ One-Step qRT-PCR Kit with Rox (Life Technologies) was used according to the manufacturer's instruction. […]

With `Cc1cc(=O)oc2c(C=O)c(O)ccc12` [4μ8c, 8-formyl-7-hydroxy-4-methylcoumarin], in the test on mouse NK cells (inhibitor 5 μM vs DMSO), the “proliferation of NK cells from Myc^OE mice” value was “proliferated to a comparable extent as in the DMSO-treated control group”. In addition, the “proliferation of NK cells from WT littermates” value in the test on mouse NK cells (inhibitor 5 μM) is reported as “impaired in proliferation”. Also, the “proliferation of CD56^bright versus CD56^dim NK cells” value in the test on primary human NK cells (IL-2 and IL-15, day 6, FIG. 7I) is listed as “primarily hindered the proliferation of CD56^bright NK cells”. Besides, the “proliferation of primary human NK cells” value in the test on primary human NK cells (cultured in IL-2 and IL-15, 5 μM inhibitor vs DMSO, day 6, FIG. 7F) is “significant reduction in proliferation”. Besides, the “c-Myc reporter GFP induction under IRE1α blockade” value in test [1] (Myc^GFP NK cells stimulated with IL-15, or IL-12 and IL-18, 16 hours) is reported as “GFP induction was largely impeded”. Also, in the test with human primary NK cells, the “levels of OXPHOS (basal OCR)” value is “significantly decreased levels of OXPHOS” and the maximal respiration rate entry is listed as “reduced maximal respiration rate”.

Turning to IL-15: recombinant cytokine IL-15, in test [1] (Myc^GFP NK cells, 16 hours, in the absence of 4μ8c), the “c-Myc reporter GFP” value is given as “c-Myc reporter GFP was induced”.

Take tunicamycin: in test [2], the Chop expression result is “strongly triggered Chop expression” and the IRE1α/XBP1 pathway result is on record as “upregulation of the IRE1α/XBP1 pathway”.
